We go through five compounds from patent US9902761B2, “Polypeptides, nucleic acids and uses thereof” (AGENCY FOR SCIENCE, TECHNOLOGY AND RESEARCH, priority 2013, dated 2018).

In data set [1] the test system is ELA processing and secretion. Nature of the data set: Xenopus secretion assay of human ELA. Format: cell-based, Xenopus laevis. The following applies: increasing amounts of inhibitor. Here is the method: ZFNs were purchased from Sigma-Aldrich. […] of mRNAs encoding the ZFN pair were injected into 1-cell stage embryos. ZFN binding sites within exon 1 are as follows: 5′_[…]_3′ (SEQ ID NO: 133) and 5′_[…] 3′ (SEQ 1D NO: 134). Sequencing primers flanking the mutation sites are: forward 5′_[…]_3′ (SEQ ID NO: 135), reverse 5′_[…] 3′ (SEQ ID NO: 136). For ela overexpression, 200 pg of SP6-transcribed zebrafish ela capped mRNA (Applied Biosystems) was injected into 1-cell stage zebrafish embryos. Translation blocking MOs used for aplnra and aplnrb have been described previously (Scott et al., 2007; Zeng et al., 2007) and were purchased from Gene tools (Oregon, USA). Embryos were injected at 1-cell stage with a combination of 1 ng of aplnra MO and 0.5 ng of apinrb MO (Zeng et al., 2007). Information on probes used for q-PCR and WISH can be found in Tables E1 and E2. Zebrafish embryos at 100% epiboly were dechorionated and processed for western blotting as previously described (Link et al., 2006). For the Xenopus secretion assay, 16 ng of SP6-transcribed human ELA capped mRNA (Applied Biosystems) was injected into each cell of 4-cell stage embryos. At stage 8, embryos were dechorionated and dissociated in CMFM medium with 5 mM EDTA. […]

The test system of data set [2] is hESCs. As to the kind of experiment: survival of hESCs after single-cell dissociation (anoikis). Format: cell-based, human. To be noted: with or without Y-27632. How it is done:
(§1) hESCs were dissociated into single cells using Accutase (Stem Cell Technologies) and plated in the presence of 10 μM Y-27632 (ROCK inhibitor) for 12 hours (Watanabe et al., 2007).

In a further data set the target is T1, aplnrb^grinch (W90L) (Danio rerio, UniProt A0T2N3, W90L).
T1 sequence (A0T2N3 1-359 W90L): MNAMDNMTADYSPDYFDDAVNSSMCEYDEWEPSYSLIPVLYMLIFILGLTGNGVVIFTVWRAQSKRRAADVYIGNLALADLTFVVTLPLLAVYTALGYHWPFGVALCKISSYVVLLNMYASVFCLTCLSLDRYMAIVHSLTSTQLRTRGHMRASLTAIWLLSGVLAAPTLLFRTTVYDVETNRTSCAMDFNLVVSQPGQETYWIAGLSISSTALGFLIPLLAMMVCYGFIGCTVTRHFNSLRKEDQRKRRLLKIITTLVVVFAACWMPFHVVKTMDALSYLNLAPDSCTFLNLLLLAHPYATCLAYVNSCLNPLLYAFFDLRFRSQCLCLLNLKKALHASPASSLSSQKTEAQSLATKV
As to the kind of experiment: AP-ELA binding assay, 293T cells overexpressing receptor. To be noted: 293T overexpression.

The subject of data set [3] is hESCs. As to the kind of experiment: AP-ELA cell surface binding assay on hESCs. Set-up: species or system human. The following applies: undifferentiated hESCs.
The target of a further data set is T2, zebrafish aplnra (Danio rerio, UniProt Q7SZP9).
T2 sequence (Q7SZP9 1-362): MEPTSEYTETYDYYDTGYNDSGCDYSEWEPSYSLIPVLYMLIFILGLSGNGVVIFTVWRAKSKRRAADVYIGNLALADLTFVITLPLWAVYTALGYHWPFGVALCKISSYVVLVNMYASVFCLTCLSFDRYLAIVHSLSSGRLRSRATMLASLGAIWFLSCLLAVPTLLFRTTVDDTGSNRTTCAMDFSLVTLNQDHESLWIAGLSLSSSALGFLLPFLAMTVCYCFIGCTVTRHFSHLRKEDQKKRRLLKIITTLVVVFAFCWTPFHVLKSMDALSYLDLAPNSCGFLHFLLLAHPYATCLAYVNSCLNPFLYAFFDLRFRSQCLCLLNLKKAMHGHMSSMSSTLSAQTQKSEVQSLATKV
Nature of the data set: AP-ELA binding assay, 293T cells overexpressing receptor. The following applies: HEK293T overexpression.

Another data set concerns the target T3, zebrafish aplnrb (Danio rerio, UniProt A0T2N3).
T3 sequence (A0T2N3 1-359): T1 sequence (A0T2N3 1-359 W90L) with L90W
The data set is described as above. To be noted: HEK293T overexpression.

Data set [4] deals with hESCs. The format is cell-based, human. To be noted: data not shown.
Data set [5] in a line: teratoma analysis after subcutaneous injection of hESCs. The format is in vivo, SCID mice. To be noted: 10 million cells subcutaneously, day 60. How it is done: Shef4TetR5-shELA cells were cultured in the presence (shELA) or absence (Control) of 20 ng/ml doxycycline for 3 passages (4 days/passage). Cells were harvested with Accutase (Stemcell Technologies) and resuspended in 1 part Matrigel to 2 parts mTSERL. 10 million cells in 200 μl were injected subcutaneously into the right hind paunches of SCID mice. shELA-injected mice were fed doxycycline (20 μg/ml) for 3 weeks following injection. Mice were sacrificed 60 days post-injection for tumor analysis.

Data set [6] deals with hESCs. Nature of the data set: protein synthesis by incorporation of fluorescently-labeled amino acids. The format is cell-based, human.
Data set [7] deals with hESCs. As to the kind of experiment: qPCR of mesendodermal markers in hESCs. The format is cell-based, human. Here is the method:
After the indicated time periods, embryoid bodies were harvested and RNA extracted using RNeasy kit ([…]). qPCR reactions were carried out using either Universal FastSlart SYBR Green Mastermix (Roche) or using the Universal Probe Library system (Roche) in tandem with Taqman Fast Mastermix (Invitrogen). Primer sequences can be found in Table E1.
(Quantitative PCR measures a nucleic acid by following its amplification.)

Data set [8] concerns hESCs. Nature of the data set: stress-induced apoptosis of hESCs by ActinomycinD. Format: cell-based, human. Here is the method:
To induce apoptosis, hESCs were treated with the indicated doses of ActinomycinD (Sigma) or ionizing radiation followed by Aqueous One Cell Titer (Promega) or CASPASE GLO3/7 (Promega) assays 12 hours post-treatment.

Data set [9] relates to hESCs. Nature of the data set: pluripotency markers and colony morphology of knockdown hESCs. Format: cell-based, human. The following applies: prolonged depletion. Here is the method: To generate stable inducible knockdown of ELA in hESCs, the sequence […] (SEQ ID NO: 132) targeting the 3′UTR of ELA was cloned into pSUPERIOR (Oliogoengine) and nulcleofected (Lonza) into Shef4TetR5 hESCs (Zafarana et al., 2009). Neomycin-resistant cells were clonally expanded and assayed for doxycycline (20 ng/ml)-inducible knockdown. Data from one representative clone (ShefTetR5 shELA) are shown in this paper. Shef4TetR5 shβ2M were derived as previously described (Zafarana et al., 2009). Unless otherwise stated, ELA knockdown was induced on Day −4 with 20 ng/ml doxycycline to generate shELA cells.

The subject of data set [10] is hESCs. As to the kind of experiment: stress-induced apoptosis of hESCs by ionizing radiation. The format is cell-based, human.
Data set [11] has as its system hESCs. Nature of the data set: stress-induced apoptosis of hESCs by ActinomycinD. The format is cell-based, human. The source holds these as a separate data set.
For data set [12], the system named is hESCs. Nature of the data set: directed endoderm differentiation of hESCs, SOX17+ cell count. The format is cell-based, human. Here is the method:
Shef4TetR5-shELA and Shef4TetR5-shβ2M cells were cultured in the presence (shELA and shβ2M respectively) or absence (Control) of 20 ng/ml doxycycline for 1 passage (4 days) and dissociated with Accutase. […] 24 hours later, the media was changed to Endo differentiation media 1 [RPMI 1640 (Gibco), 1× B-27 supplement (Invitrogen), 50 ng/ml of Activin A (R&D Systems), 25 ng/ml BMP4 (R&D Systems) and 50 ng/ml bFGF (Invitrogen)] for 3 days. On day 3, the media was changed to Endo differentiation media 2 (RPMI 1640, B27, 50 ng/ml Activin) for 2 more days of culture. Rescue experiments were performed by adding 2.5 uM of ELA peptide to Shef4TetR5-shELA concurrently with doxycycline up to day 3, when the ELA peptide is no longer necessary as judged by downregulation of endogenous ELA.
On day 5, cells were fixed with 4% paraformaldehyde and stained with α SOX17 (AF1924, R&D Systems) and DAPI. For each well, three different randomly selected fields were imaged and the number of nuclei staining positive of SOXI 7 and DAPI were counted using a custom macro in ImageJ. A minimum of two wells per condition was used for each experiment, and a minimum of two independent experiments were performed to generate the results.

The subject of data set [13] is hESCs. As to the kind of experiment: xCELLigence real time growth assay, cell counts and colony size of hESCs. The format is cell-based, human. Here is the method:
Feeder-free hESCs were cultured in clumps in mTSER1 (Stem Cell Technologies) on Matrigel (BD 354277).
as §1
For xCELLigence real time growth assays, 4000 cells were plated per well of an E-plate (ACEA Biosciences) with media changes every 48 hours.
Recombinant ELA was added at 2.5 uM (or 10 μg/ml). Cell cycle studies were performed with Click-iT EDU staining kit (Invitrogen) and by performing a double thymidine block (2.5 mM thymidine; 16 hour block, 8 hour release, 16 hour block) followed by DAPI staining for DNA content at the indicated times following release.

Residue numbers refer to the chain shown, from its start.

With `C[C@H]1CCC/C=C/[C@@H]2C[C@H](O)C[C@H]2[C@H](O)/C=C/C(=O)O1` [Brefeldin A], the “ELA processing and secretion” value in data set [1] was “able to block ELA processing and secretion”.
Consider `C[C@@H](N)[C@H]1CC[C@H](C(=O)Nc2ccncc2)CC1` [ROCK inhibitor, Y-27632, reference compound], for which the “survival following dissociation (anoikis)” value in the data set with hESCs [2] is listed as “protects against anoikis”.
Regarding “AP-ELA: mature C-terminal 32-mer of ELA cloned in frame with alkaline phosphatase, secreted from 293T cells”, in the data set with aplnrb^grinch (W90L), the “binding of AP-ELA to aplnrb^grinch” value is given as “unable to bind AP-ELA”. In the data set on hESCs [3], the “binding of AP-ELA to hESCs” value is “readily bind”. Moreover, the “cell-surface binding of AP-ELA to aplnra” value with zebrafish aplnra was “sufficient to afford cell-surface binding”. For the same compound, in the data set with zebrafish aplnrb, the “cell-surface binding of AP-ELA to aplnrb” value is “sufficient to afford cell-surface binding”.
With APELIN-13, the “effect on hESCs” value with hESCs [4] is “no effect on hESCs”.
For the compound “GTGATTCTCGTGCCTCAAC (expressed or natural sequence) [shELA, doxycycline-inducible shRNA targeting the 3′UTR of ELA in Shef4TetR5 hESCs]”, the teratoma formation entry in [5] is on record as “did not form teratomas”. For the same compound, the protein synthesis entry in the data set with hESCs [6] was “reduced protein synthesis”. Further, in the data set on hESCs [7], the “expression of mesendodermal genes GATA6, GATA4, FOXA2, EOMES and BRA” value was “conversely downregulated”. The “activated CASPASE3/7 and CASPASE 9 after ActinomycinD” value with hESCs [8] was “increased levels of activated CASPASE3/7”. For the same compound, the “resistance or sensitivity to ActinomycinD” value in the data set on hESCs [8] (nanomolar concentrations of ActinomycinD) is “more sensitive compared to control”. Also, the “pluripotency markers POU5F1, NANOG, SSEA3 and TRA-1-60” value in the data set with hESCs [9] is “downregulation of pluripotency markers”. Further, the “sensitivity to gamma irradiation relative to control” value with hESCs [10] is on record as “twice as sensitive”. In addition, the “activated CASPASE 3 after irradiation” value with hESCs [10] (3 hours after 1 Gray of γ irradiation) is “higher levels of activated CASPASE 3”. Also, the “survival following dissociation (anoikis)” value in the data set with hESCs [2] is “do not survive single-cell dissociation”. Also, the “levels of MCL-1” value in the data set on hESCs [11] is reported as “lower levels”. The BAX localisation entry with hESCs [11] (mitochondria versus cytoplasm) is given as “higher levels of BAX in the mitochondria”. The “reduction over control in the number of SOX17+ cells” value in the data set with hESCs [12] (5 days directed differentiation, FIG. 6F) came to 45%. Moreover, the “reduction of SOX17 expression” value in the data set with hESCs [12] (directed differentiation, control, shELA and shβ2M, FIG. 13C) is recorded as 35%. The “growth rates of knockdown hESCs seeded as single cells” value in the data set on hESCs [13] (real-time cell index, compared to control and shβ2M hESCs) is on record as “markedly reduced growth rates”. For the same compound, the “colony size of knockdown hESCs” value in the data set on hESCs [13] (relative to shβ2M hESCs) was “less than half the size”.
